Data on 1 compound can be found in patent publication US20190218304A1, “POTENTIATING THE EFFECT OF ATP RELEASE” (INNATE PHARMA, priority 2017, published 2019).

The test system of this test is MCA205 mouse tumor cells (sarcoma). The test is described as follows: In vivo combination treatment, MCA205 tumors in human CD39 KI mice.
Where [1] appears, read: first experimental series: oxaliplatin at day 5, murine I-394 twice a week from day 4.
Setting [2] is: second experimental series, repeated oxaliplatin.

Procedure: 1×10^6 MCA205 mouse tumor cells (sarcoma) were subcutaneously engrafted in the right flank of mice genetically modified to express human CD39 (CD39KI mice). […] Tumors were measured twice a week with a caliper (L: length and w: width) and tumor volume was calculated with the formula (L×w2)/2. Mice were sacrificed when tumor volume was above 1800 mm^3 or when tumors were highly necrosed. The human CD39 KI mice were engrafted with MCA205 tumor cells at day 0.
In a first experimental series, mice were treated at day 5 post tumor cell engraftment with either control (1 group) PBS, or oxaliplatin chemotherapy (2 groups). In parallel, one group of mice treated with oxaliplatin was injected twice a week with anti-CD39 antibody, with the anti-CD39 antibody treatment starting just one day before oxaliplatin treatment (at day 4).

`O=C1[O][Pt]2([NH][C@@H]3CCCC[C@H]3[NH]2)[O]C1=O` [oxaliplatin]: under setting [1], the “Complete Response (CR), number of mice” value is given as “no CR” and the Survival median is 25 days. Moreover, the tumor free mice (second experimental series, 40 days post tumor engraftment) is 2/12. Moreover, under setting [2], the “CR (complete responses), number of mice” value was determined as 2 and the “partial responses (PR), number of mice” value was 3. Further, the “effect on tumor growth / tumor volume and mice survival” value (second experimental series: oxaliplatin injected twice, one week apart, one day after I-394) is “some regression of tumor volume, and increase in mice survival”.
